What is called IC50 is the midpoint of a concentration-inhibition curve.

From article PMC10609219 (Molecules, 2023) come the findings set out here.

For this test, the target named is T1, DPP-4 (Homo sapiens, UniProt P27487).
T1 construct: gene DPP4
Nature of the test: fluorogenic enzyme inhibition assay (Cayman DPP-4 inhibitor screening kit). It counts as biochemical.

T1 sequence (P27487 39-766): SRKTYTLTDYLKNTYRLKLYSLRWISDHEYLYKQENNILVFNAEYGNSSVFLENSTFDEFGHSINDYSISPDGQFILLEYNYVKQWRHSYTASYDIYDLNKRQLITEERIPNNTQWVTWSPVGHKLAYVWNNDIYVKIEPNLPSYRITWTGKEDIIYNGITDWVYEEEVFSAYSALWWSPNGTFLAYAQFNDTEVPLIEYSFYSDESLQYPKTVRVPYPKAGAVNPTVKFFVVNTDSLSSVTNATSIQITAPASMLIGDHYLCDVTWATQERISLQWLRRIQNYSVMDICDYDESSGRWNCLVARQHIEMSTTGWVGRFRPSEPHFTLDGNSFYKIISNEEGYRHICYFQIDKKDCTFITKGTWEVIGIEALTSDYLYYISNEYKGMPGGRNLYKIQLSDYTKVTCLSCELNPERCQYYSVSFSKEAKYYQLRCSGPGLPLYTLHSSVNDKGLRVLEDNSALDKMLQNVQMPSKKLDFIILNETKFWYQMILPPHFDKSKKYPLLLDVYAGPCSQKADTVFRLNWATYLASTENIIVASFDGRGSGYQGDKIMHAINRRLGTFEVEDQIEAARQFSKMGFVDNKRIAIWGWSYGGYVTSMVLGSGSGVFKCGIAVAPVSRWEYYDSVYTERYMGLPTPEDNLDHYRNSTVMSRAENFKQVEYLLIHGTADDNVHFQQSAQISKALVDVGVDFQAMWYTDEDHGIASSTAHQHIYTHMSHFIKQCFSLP

Compound `O=C(O)/C=C/c1ccc(O)c(O)c1` [caffeic acid, (E)-3-(3,4-dihydroxyphenyl)prop-2-enoic acid] registered an IC50 of 158 ± 11.3 µM.
